Laboratory results taken from patent publication US20030170829A1 (priority 2001, published 2003).
“Also recorded” adds a separate entry of the source. Where two headings read alike, the source gives them in different places.

Assays:
AFDH [1] = assay type: biochemical, Anthracobia melaloma; conditions: for Relative activity (%): None = 100
AFDH [2] = system: AFDH
AFDH [3] = system: AFDH; remark: listed apart in the source
[4] = substrate 100 μl, 12.79 μmol/ml
[5] = substrate 130 μl, 16.63 μmol/ml
[6] = substrate 160 μl, 20.46 μmol/ml
[7] = substrate 180 μl, 23.02 μmol/ml
[8] = substrate 200 μl, 25.58 μmol/ml
[9] = substrate 230 μl, 29.42 μmol/ml
[10] = substrate 260 μl, 33.25 μmol/ml
[11] = substrate 300 μl, 38.37 μmol/ml
[12] = substrate 400 μl, 51.16 μmol/ml
[13] = substrate 450 μl, 57.56 μmol/ml
[14] = substrate 480 μl, 61.39 μmol/ml
[15] = substrate 100 μl, 24.75 μmol/ml
[16] = substrate 120 μl, 29.69 μmol/ml
[17] = substrate 150 μl, 37.12 μmol/ml
[18] = substrate 170 μl, 42.07 μmol/ml
[19] = substrate 200 μl, 49.49 μmol/ml
[20] = substrate 250 μl, 61.86 μmol/ml
[21] = substrate 300 μl, 74.24 μmol/ml

SMILES: O[C@@H](CS)[C@@H](O)CS [DTT]
- effect on AFDH activity (AFDH [1]): inhibited
- Relative activity (%) (AFDH [1]; inhibitor 10 mM): 57%

SMILES: O=C1CO[C@H](CO)[C@@H](O)[C@@H]1O [AF, 1,5-anhydro-D-fructose]
- Km (AFDH [2]; read-out: apparent Km (concentration that yielded half of the maximum activity), substrate AF, pH 6.7, 22 °C): 12.6 mM
- Activity units (AFDH [2]; substrate 5 μl, 0.64 μmol/ml): 39.33 units
- OD263 (AFDH [2]; substrate 5 μl, 0.64 μmol/ml): 0.059
- Activity units (AFDH [2]; substrate 10 μl, 1.28 μmol/ml): 62.67 units
- OD263 (AFDH [2]; substrate 10 μl, 1.28 μmol/ml): 0.094
- Activity units (AFDH [2]; substrate 20 μl, 2.56 μmol/ml): 101.33 units
- OD263 (AFDH [2]; substrate 20 μl, 2.56 μmol/ml): 0.152
- Activity units (AFDH [2]; substrate 30 μl, 3.84 μmol/ml): 182.67 units
- OD263 (AFDH [2]; substrate 30 μl, 3.84 μmol/ml): 0.274
- Activity units (AFDH [2]; substrate 40 μl, 5.12 μmol/ml): 210.67 units
- OD263 (AFDH [2]; substrate 40 μl, 5.12 μmol/ml): 0.316
- Activity units (AFDH [2]; substrate 50 μl, 6.40 μmol/ml): 218.67 units
- OD263 (AFDH [2]; substrate 50 μl, 6.40 μmol/ml): 0.328
- Activity units (AFDH [2]; substrate 60 μl, 0.46 μmol/ml): 256.00 units
- OD263 (AFDH [2]; substrate 60 μl, 0.46 μmol/ml): 0.384
- Activity units (AFDH [2]; substrate 70 μl, 8.95 μmol/ml): 327.33 units
- OD263 (AFDH [2]; substrate 70 μl, 8.95 μmol/ml): 0.491
- Activity units (AFDH [2]; [4]): 412.00 units
- OD263 (AFDH [2]; [4]): 0.618
- Activity units (AFDH [2]; [5]): 456.67 units
- OD263 (AFDH [2]; [5]): 0.685
- Activity units (AFDH [2]; [6]): 511.33 units
- OD263 (AFDH [2]; [6]): 0.767
- Activity units (AFDH [2]; [7]): 549.33 units
- OD263 (AFDH [2]; [7]): 0.824
- Activity units (AFDH [2]; [8]): 561.33 units
- OD263 (AFDH [2]; [8]): 0.842
- Activity units (AFDH [2]; [9]): 594.67 units
- OD263 (AFDH [2]; [9]): 0.892
- Activity units (AFDH [2]; [10]): 609.33 units
- OD263 (AFDH [2]; [10]): 0.914
- Activity units (AFDH [2]; [11]): 646.67 units
- OD263 (AFDH [2]; [11]): 0.97
- Activity units (AFDH [2]; [12]): 738.67 units
- OD263 (AFDH [2]; [12]): 1.108
- Activity units (AFDH [2]; [13]): 767.33 units
- OD263 (AFDH [2]; [13]): 1.151
- Activity units (AFDH [2]; [14]): 772.67 units
- OD263 (AFDH [2]; [14]): 1.159
- Vmax (AFDH [2]; substrate AF, pH 6.7, 22 °C): 769 units

SMILES: O=CC(=O)[C@@H](O)[C@H](O)[C@H](O)CO [D-glucosone]
- Km (AFDH [3]; read-out: apparent Km (concentration that yielded half of the maximum activity), substrate D-glucosone, pH 6.7, 22 °C): 27.6 mM
- Activity units (AFDH [3]; substrate 5 μl, 1.24 μmol/ml): 33.33 units
- OD265 (AFDH [3]; substrate 5 μl, 1.24 μmol/ml): 0.050
- Activity units (AFDH [3]; substrate 10 μl, 2.47 μmol/ml): 36.00 units
- OD265 (AFDH [3]; substrate 10 μl, 2.47 μmol/ml): 0.054
- Activity units (AFDH [3]; substrate 20 μl, 4.95 μmol/ml): 57.33 units
- OD265 (AFDH [3]; substrate 20 μl, 4.95 μmol/ml): 0.086
- Activity units (AFDH [3]; substrate 30 μl, 7.42 μmol/ml): 79.30 units
- OD265 (AFDH [3]; substrate 30 μl, 7.42 μmol/ml): 0.119
- Activity units (AFDH [3]; substrate 40 μl, 9.90 μmol/ml): 101.33 units
- OD265 (AFDH [3]; substrate 40 μl, 9.90 μmol/ml): 0.152
- Activity units (AFDH [3]; substrate 50 μl, 12.37 μmol/ml): 114.00 units
- OD265 (AFDH [3]; substrate 50 μl, 12.37 μmol/ml): 0.171
- Activity units (AFDH [3]; substrate 60 μl, 14.85 μmol/ml): 140.67 units
- OD265 (AFDH [3]; substrate 60 μl, 14.85 μmol/ml): 0.211
- Activity units (AFDH [3]; substrate 70 μl, 17.32 μmol/ml): 164.67 units
- OD265 (AFDH [3]; substrate 70 μl, 17.32 μmol/ml): 0.247
- Activity units (AFDH [3]; substrate 80 μl, 19.80 μmol/ml): 180.67 units
- OD265 (AFDH [3]; substrate 80 μl, 19.80 μmol/ml): 0.271
- Activity units (AFDH [3]; substrate 90 μl, 22.27 μmol/ml): 215.30 units
- OD265 (AFDH [3]; substrate 90 μl, 22.27 μmol/ml): 0.323
- Activity units (AFDH [3]; [15]): 230.67 units
- OD265 (AFDH [3]; [15]): 0.346
- Activity units (AFDH [3]; [16]): 262.67 units
- OD265 (AFDH [3]; [16]): 0.379
- Activity units (AFDH [3]; [17]): 310.20 units
- OD265 (AFDH [3]; [17]): 0.394
- Activity units (AFDH [3]; [18]): 352.62 units
- OD265 (AFDH [3]; [18]): 0.529
- Activity units (AFDH [3]; [19]): 394.62 units
- OD265 (AFDH [3]; [19]): 0.592
- Activity units (AFDH [3]; [20]): 407.33 units
- OD265 (AFDH [3]; [20]): 0.611
- Activity units (AFDH [3]; [21]): 414.67 units
- OD265 (AFDH [3]; [21]): 0.622
- Vmax (AFDH [3]; substrate D-glucosone, pH 6.7, 22 °C): 416 units

SMILES: [Cl-].[Na+] [NaCl]
- concentration found to increase the activity with a factor of two (AFDH [1]): 50 mM
- Activity units (AFDH [1]; NaCl 0.05 M): 1263.3 units
- OD263 (AFDH [1]; NaCl 0.05 M): 0.758
- Activity units (AFDH [1]; NaCl 0.1 M): 1348.3 units
- OD263 (AFDH [1]; NaCl 0.1 M): 0.809
- Activity units (AFDH [1]; NaCl 0.15 M): 1381.7 units
- OD263 (AFDH [1]; NaCl 0.15 M): 0.829
- Activity units (AFDH [1]; NaCl 0.2 M): 1415.0 units
- OD263 (AFDH [1]; NaCl 0.2 M): 0.849
- Activity units (AFDH [1]; NaCl 0.3 M): 1453.3 units
- OD263 (AFDH [1]; NaCl 0.3 M): 0.872
- Activity units (AFDH [1]; NaCl 0.4 M): 1338.3 units
- OD263 (AFDH [1]; NaCl 0.4 M): 0.803
- Activity units (AFDH [1]; NaCl 0.5 M): 1301.7 units
- OD263 (AFDH [1]; NaCl 0.5 M): 0.781
- Activity units (AFDH [1]; NaCl 0.6 M): 1286.7 units
- OD263 (AFDH [1]; NaCl 0.6 M): 0.772
- Activity units (AFDH [1]; NaCl 0.7 M): 1271.7 units
- OD263 (AFDH [1]; NaCl 0.7 M): 0.763
- Activity units (AFDH [1]; NaCl 0.8 M): 1223.3 units
- OD263 (AFDH [1]; NaCl 0.8 M): 0.734
- Activity units (AFDH [1]; NaCl 0.9 M): 1141.7 units
- OD263 (AFDH [1]; NaCl 0.9 M): 0.685
- effect on AFDH activity (AFDH [1]; listed as Na^+): increased; also recorded: positive effect

SMILES: [Ca+2].[Cl-].[Cl-] [CaCl2]
- concentration found to increase the activity with a factor of two (AFDH [1]): 10 mM
- effect on AFDH activity (AFDH [1]): increased
- Activity units (AFDH [1]; effector 5 mM): 1245.0 units
- OD263 (AFDH [1]; effector 5 mM): 0.747
- Activity units (AFDH [1]; effector 10 mM): 1442.7 units
- OD263 (AFDH [1]; effector 10 mM): 0.865
- Activity units (AFDH [1]; effector 15 mM): 1455.0 units
- OD263 (AFDH [1]; effector 15 mM): 0.873
- Activity units (AFDH [1]; effector 20 mM): 1531.7 units
- OD263 (AFDH [1]; effector 20 mM): 0.919
- Activity units (AFDH [1]; effector 25 mM): 1561.7 units
- OD263 (AFDH [1]; effector 25 mM): 0.937
- Activity units (AFDH [1]; effector 30 mM): 1601.7 units
- OD263 (AFDH [1]; effector 30 mM): 0.961
- Activity units (AFDH [1]; effector 40 mM): 1473.3 units
- OD263 (AFDH [1]; effector 40 mM): 0.884
- Activity units (AFDH [1]; effector 50 mM): 1466.7 units
- OD263 (AFDH [1]; effector 50 mM): 0.880

SMILES: O=C(O)CN(CCN(CC(=O)O)CC(=O)O)CC(=O)O [EDTA]
- effect on AFDH activity (AFDH [1]): inhibited
- Relative activity (%) (AFDH [1]; inhibitor 10 mM): 59%
- Relative activity (%) (AFDH [1]; inhibitor 50 mM): 16%

SMILES: [Cl-].[Cl-].[Mg+2] [MgCl2]
- concentration found to increase the activity with a factor of two (AFDH [1]): 25 mM
- effect on AFDH activity (AFDH [1]): increased
- Activity units (AFDH [1]; effector 5 mM): 1053.3 units
- OD263 (AFDH [1]; effector 5 mM): 0.632
- Activity units (AFDH [1]; effector 10 mM): 1228.3 units
- OD263 (AFDH [1]; effector 10 mM): 0.737
- Activity units (AFDH [1]; effector 15 mM): 1255.0 units
- OD263 (AFDH [1]; effector 15 mM): 0.753
- Activity units (AFDH [1]; effector 20 mM): 1295.0 units
- OD263 (AFDH [1]; effector 20 mM): 0.777
- Activity units (AFDH [1]; effector 25 mM): 1316.7 units
- OD263 (AFDH [1]; effector 25 mM): 0.790
- Activity units (AFDH [1]; effector 30 mM): 1291.7 units
- OD263 (AFDH [1]; effector 30 mM): 0.775
- Activity units (AFDH [1]; effector 40 mM): 1243.3 units
- OD263 (AFDH [1]; effector 40 mM): 0.746
- Activity units (AFDH [1]; effector 50 mM): 1186.7 units
- OD263 (AFDH [1]; effector 50 mM): 0.712

SMILES: [Cl-].[Cl-].[Zn+2] [ZnCl2]
- effect on AFDH activity (AFDH [1]): inhibited
- Activity units (AFDH [1]; effector 5 mM): 551.7 units
- OD263 (AFDH [1]; effector 5 mM): 0.331
- Activity units (AFDH [1]; effector 10 mM): 435.0 units
- OD263 (AFDH [1]; effector 10 mM): 0.261
- Activity units (AFDH [1]; effector 15 mM): 315.0 units
- OD263 (AFDH [1]; effector 15 mM): 0.189
- Activity units (AFDH [1]; effector 20 mM): 241.7 units
- OD263 (AFDH [1]; effector 20 mM): 0.145
- Activity units (AFDH [1]; effector 25 mM): 220.0 units
- OD263 (AFDH [1]; effector 25 mM): 0.132
- Activity units (AFDH [1]; effector 30 mM): 201.7 units
- OD263 (AFDH [1]; effector 30 mM): 0.121
- Activity units (AFDH [1]; effector 40 mM): 158.3 units
- OD263 (AFDH [1]; effector 40 mM): 0.095
- Activity units (AFDH [1]; effector 50 mM): 135.0 units
- OD263 (AFDH [1]; effector 50 mM): 0.081
- Relative activity (%) (AFDH [1]; inhibitor 10 mM): 52.52%
